US20250171467A1, “FUSED PYRAZOLE AMIDE ANALOGS AS GLUCOSYLCERAMIDE SYNTHASE INHIBITORS” (Merck Sharp & Dohme LLC, priority 2022, published 2025)

These compounds were tested against glucosylceramide synthase (GCS) (Homo sapiens (Human), UniProt Q16739) (assay: UDP-Glo glucosylceramide synthase biochemical assay). Conditions: endogenous GCS in Golgi preparations from human A375 malignant melanoma skin cells; C6 ceramide and UDP-glucose substrates; 20 h incubation at room temperature; UDP detected by luminescence.
Chain of glucosylceramide synthase (GCS) (Q16739 whole entry): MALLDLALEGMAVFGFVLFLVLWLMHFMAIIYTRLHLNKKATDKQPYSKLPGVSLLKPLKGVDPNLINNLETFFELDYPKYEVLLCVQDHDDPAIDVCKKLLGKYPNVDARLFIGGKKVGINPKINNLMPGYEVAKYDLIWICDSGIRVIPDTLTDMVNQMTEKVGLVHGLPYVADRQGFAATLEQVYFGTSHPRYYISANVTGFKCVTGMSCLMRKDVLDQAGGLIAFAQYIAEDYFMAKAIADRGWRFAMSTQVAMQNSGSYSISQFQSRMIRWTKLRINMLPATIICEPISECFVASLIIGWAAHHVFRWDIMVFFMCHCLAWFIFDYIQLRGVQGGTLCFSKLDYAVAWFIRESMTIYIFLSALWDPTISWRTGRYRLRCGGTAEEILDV
From the text: A UDP-Glo™ glucosylceramide synthase biochemical assay was utilized to evaluate the effect of test compounds on the activity of endogenous levels of GCS enzyme contained within Golgi preparations isolated from human A375 malignant melanoma skin cells. The UDP-Glo™ glucosylceramide synthase assay uses UDP-Glucose as a nucleotide-glycosyl donor and ceramide as substrate acceptor molecules. In the reaction, glucosylceramide synthase (GCS) transfers glucose from UDP-Glucose to ceramide. Glucosylceramide and UDP are released as products.
Using Promega's UDP-Glo™ Glycosyltransferase assay kit (Promega Corporation, Madison, WI, USA (Promega)), GCS activity was indirectly measured by detecting the amount of UDP produced. An aliquot of GCS enzyme (1.5 μg crude golgi preparation, total protein) and titrated test compound were aliquoted to each well and incubated for 30 minutes at room temperature. […] An equivalent volume of substrate mixture was then added to each well. Following a 20 h incubation at room temperature to allow for GCS turnover of substrate, an equal volume of UDP detection reagent (Promega) was added to each well and incubated for an additional 75 minutes at room temperature to simultaneously convert the accumulated UDP product into ATP and generate light in a luciferase reaction. The generated light was detected using a luminometer. […] luminescence values (RLUs) were normalized to mean “min” and “max” effects, as determined on each plate. […] Values for % Emax and EC50 were determined by best-fitting the normalized data to a curve in Activity Base along a four-parameter logistic nonlinear regression (4PL) model (based on the Levenberg-Marquardt algorithm and defined by the equation below): […]
where: n is 4PMin (bottom of the curve); m is 4PMax (top of the curve); i is IP (inflection point of curve); and p is slope. See Levenberg, K., “A Method for the Solution of Certain Problems in Least Squares”, Quart. Appl. Math. 2, (1944), pp 164-168 and Marquardt, D., “An Algorithm for Least Squares Estimation on Nonlinear Parameters”, SIAM J. Appl. Math. 11, (1963) pp 431-441.

Structure (SMILES) | EC50
COc1ccc(-n2nc(C(=O)N3CCCNCC3C)c3c2CCOC3)cc1 (racemic) [Compound 7, Racemic-[1-(4-methoxyphenyl)-1,4,6,7-tetrahydropyrano[4,3-c]pyrazol-3-yl]-(2-methyl-1,4-diazepan-1-yl)methanone] | 0.25 µM
COc1ccc(-n2nc(C(=O)N3CCN4CCC3C4)c3c2CCOC3)cc1 (racemic) [Compound 10, Racemic-1,4-diazabicyclo[3.2.1]octan-4-yl-[1-(4-methoxyphenyl)-1,4,6,7-tetrahydropyrano[4,3-c]pyrazol-3-yl]methanone] | 0.18 µM
COc1ccc(-n2nc(C(=O)N3CCC4CCC(C3)N4)c3c2CCOC3)cc1 (racemic) [Compound 12, Racemic-3,9-diazabicyclo[4.2.1]nonan-3-yl-[1-(4-methoxyphenyl)-1,4,6,7-tetrahydropyrano[4,3-c]pyrazol-3-yl]methanone] | 0.84 µM
COc1ccc(-n2nc(C(=O)N3CCNCC(F)C3)c3c2CCOC3)cc1 (racemic) [Compound 13, Racemic-(6-fluoro-1,4-diazepan-1-yl)-[1-(4-methoxyphenyl)-1,4,6,7-tetrahydropyrano[4,3-c]pyrazol-3-yl]methanone] | 2.5 µM
COc1ccc(-n2nc(C(=O)N3CCN4CCC3C(F)(F)C4)c3c2CCOC3)cc1 (single isomer, unassigned) [Compound 2, [(5˜{R or S})-6,6-difluoro-1,4-diazabicyclo[3.2.2]nonan-4-yl]-[1-(4-methoxyphenyl)-1,4,6,7-tetrahydropyrano[4,3-c]pyrazol-3-yl]methanone] | 7.7 µM
COc1ccc(-n2nc(C(=O)N3CCN4CCC3C(F)(F)C4)c3c2CCOC3)cc1 (single isomer, unassigned) [Compound 3, [(5˜{S or R})-6,6-difluoro-1,4-diazabicyclo[3.2.2]nonan-4-yl]-[1-(4-methoxyphenyl)-1,4,6,7-tetrahydropyrano[4,3-c]pyrazol-3-yl]methanone] | 1.4 µM
COc1ccc(-n2nc(C(=O)N3CCN4CCC3C(F)(F)C4)c3c2CCC3)cc1C(F)(F)F (single isomer, unassigned) [Compound 22, [R or S]-(6,6-difluoro-1,4-diazabicyclo[3.2.2]nonan-4-yl)-[1-[4-methoxy-3-(trifluoromethyl)phenyl]-1,4,5,6-tetrahydrocyclopenta[c]pyrazol-3-yl]methanone] | 0.016 µM
COc1ccc(-n2nc(C(=O)N3CC[N@@]4CCC3C(F)(F)C4)c3c2CCC3)cc1C(F)(F)F (single isomer, unassigned) [Compound 23, [S or R]-(6,6-difluoro-1,4-diazabicyclo[3.2.2]nonan-4-yl)-[1-[4-methoxy-3-(trifluoromethyl)phenyl]-1,4,5,6-tetrahydrocyclopenta[c]pyrazol-3-yl]methanone] | 0.066 µM
COc1ccc(-n2nc(C(=O)N3CCCN(C)CC3)c3c2CCOC3)cc1 [Compound 4, [1-(4-methoxyphenyl)-1,4,6,7-tetrahydropyrano[4,3-c]pyrazol-3-yl]-(4-methyl-1,4-diazepan-1-yl)methanone] | 0.94 µM
O=C(c1nn(-c2ccc(OC(F)F)cc2)c2c1COCC2)N1CCN2CCC1CC2 [Compound 5, 1,4-diazabicyclo[3.2.2]nonan-4-yl-[1-[4-(difluoromethoxy)phenyl]-1,4,6,7-tetrahydropyrano[4,3-c]pyrazol-3-yl]methanone] | 0.029 µM
COc1ccc(-n2nc(C(=O)N3CCCNCC3)c3c2CCOC3)cc1 [Compound 6, 1,4-diazepan-1-yl-[1-(4-methoxyphenyl)-1,4,6,7-tetrahydropyrano[4,3-c]pyrazol-3-yl]methanone] | 0.36 µM
COc1ccc(-n2nc(C(=O)N3CCNCC4(CC4)C3)c3c2CCOC3)cc1 [Compound 8, 5,8-diazaspiro[2.6]nonan-8-yl-[1-(4-methoxyphenyl)-1,4,6,7-tetrahydropyrano[4,3-c]pyrazol-3-yl]methanone] | 1.2 µM
COc1ccc(-n2nc(C(=O)N3CCCN(C)CC3)c3c2CCOC3)cc1C(F)(F)F [Compound 14, [1-[4-methoxy-3-(trifluoromethyl)phenyl]-1,4,6,7-tetrahydropyrano[4,3-c]pyrazol-3-yl]-(4-methyl-1,4-diazepan-1-yl)methanone] | 0.32 µM
COc1ccc(-n2nc(C(=O)N3CCCN(C)CC3)c3c2CCOC3)cc1F [Compound 15, [1-(3-fluoro-4-methoxyphenyl)-1,4,6,7-tetrahydropyrano[4,3-c]pyrazol-3-yl]-(4-methyl-1,4-diazepan-1-yl)methanone] | 0.73 µM
COc1ccc(-n2nc(C(=O)N3CCN4CCC3CC4)c3c2CCOC3)cc1Cl [Compound 16, [1-(3-chloro-4-methoxyphenyl)-1,4,6,7-tetrahydropyrano[4,3-c]pyrazol-3-yl]-(1,4-diazabicyclo[3.2.2]nonan-4-yl)methanone] | 0.0022 µM
COc1ccc(-n2nc(C(=O)N3CCN4CCC3CC4)c3c2CCC3)cc1 [Compound 17, 1,4-diazabicyclo[3.2.2]nonan-4-yl-[1-(4-methoxyphenyl)-1,4,5,6-tetrahydrocyclopenta[c]pyrazol-3-yl]methanone] | 0.0017 µM
COc1ccc(-n2nc(C(=O)N3CCN4CCC3CC4)c3c2CCC3)cc1F [Compound 18, 1,4-diazabicyclo[3.2.2]nonan-4-yl-[1-(3-fluoro-4-methoxyphenyl)-1,4,5,6-tetrahydrocyclopenta[c]pyrazol-3-yl]methanone] | 0.0009 µM
COc1ccc(-n2nc(C(=O)N3CCN4CCC3CC4)c3c2CCC3)cc1Cl [Compound 19, [1-(3-chloro-4-methoxyphenyl)-1,4,5,6-tetrahydrocyclopenta[c]pyrazol-3-yl]-(1,4-diazabicyclo[3.2.2]nonan-4-yl)methanone] | 0.0003 µM
COc1ccc(-n2nc(C(=O)N3CCN4CCC3CC4)c3c2CCC3)cc1C [Compound 20, 1,4-diazabicyclo[3.2.2]nonan-4-yl-[1-(4-methoxy-3-methylphenyl)-1,4,5,6-tetrahydrocyclopenta[c]pyrazol-3-yl]methanone] | 0.0004 µM
COc1ccc(-n2nc(C(=O)N3CCN4CCC3CC4)c3c2CCC3)cc1C(F)(F)F [Compound 21, 1,4-diazabicyclo[3.2.2]nonan-4-yl-[1-[4-methoxy-3-(trifluoromethyl)phenyl]-1,4,5,6-tetrahydrocyclopenta[c]pyrazol-3-yl]methanone] | 0.0001 µM
O=C(c1nn(-c2ccc(Cl)c(Cl)c2)c2c1CCC2)N1CCN2CCC1CC2 [Compound 24, 1,4-diazabicyclo[3.2.2]nonan-4-yl-[1-(3,4-dichlorophenyl)-1,4,5,6-tetrahydrocyclopenta[c]pyrazol-3-yl]methanone] | 0.0001 µM
O=C(c1nn(-c2ccc(F)c(Cl)c2)c2c1CCC2)N1CCN2CCC1CC2 [Compound 25, [1-(3-chloro-4-fluorophenyl)-1,4,5,6-tetrahydrocyclopenta[c]pyrazol-3-yl]-(1,4-diazabicyclo[3.2.2]nonan-4-yl)methanone] | 0.0013 µM
O=C(c1nn(-c2cccc(Cl)c2)c2c1CCC2)N1CCN2CCC1CC2 [Compound 26, [1-(3-chlorophenyl)-1,4,5,6-tetrahydrocyclopenta[c]pyrazol-3-yl]-(1,4-diazabicyclo[3.2.2]nonan-4-yl)methanone] | 0.0015 µM
Cc1ccc(-n2nc(C(=O)N3CCN4CCC3CC4)c3c2CCC3)cc1Cl [Compound 27, [1-(3-chloro-4-methylphenyl)-1,4,5,6-tetrahydrocyclopenta[c]pyrazol-3-yl]-(1,4-diazabicyclo[3.2.2]nonan-4-yl)methanone] | 0.0003 µM
O=C(c1nn(-c2ccc(OC(F)F)c(Cl)c2)c2c1CCC2)N1CCN2CCC1CC2 [Compound 28, [1-[3-chloro-4-(difluoromethoxy)phenyl]-1,4,5,6-tetrahydrocyclopenta[c]pyrazol-3-yl]-(1,4-diazabicyclo[3.2.2]nonan-4-yl)methanone] | 0.0013 µM
